{"source": "paper PMC4499129", "about": "“DNA3′pp5′G de-capping activity of aprataxin: effect of cap nucleoside analogs and structural basis for guanosine recognition” (Nucleic Acids Research, 2015)", "molecules": {"B1": {"name": "10-mer self-paired mismatched duplex HO-GAATCATAAC-OH (dsDNA)", "DNA 1": "GAATCATAAC", "DNA 2": "GAATCATAAC", "modifications": "5'-OH and 3'-OH ends"}}, "key": {"Aprataxin-(33-232)": {"target": "T1, Aprataxin-(33-232) (Schizosaccharomyces pombe, UniProt O74859)", "T1 construct": "gene hnt3; catalytic domain aa 33-232 (HIT domain + zinc finger), His10Smt3 tag cut by Ulp1, tag-free; E. coli BL21(DE3); two protomers per asymmetric unit", "T1 sequence (O74859 33-232)": "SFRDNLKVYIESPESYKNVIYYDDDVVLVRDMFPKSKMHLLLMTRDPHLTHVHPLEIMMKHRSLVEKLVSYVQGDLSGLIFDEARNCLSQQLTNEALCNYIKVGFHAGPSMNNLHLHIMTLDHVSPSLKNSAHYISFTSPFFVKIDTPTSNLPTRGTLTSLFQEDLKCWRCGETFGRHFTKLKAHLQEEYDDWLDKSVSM", "test": "X-ray crystal structure, […] Å", "type": "binding", "settings": "co-crystallised with 5 mM GMP, pH 8.0, active site of protomer B"}, "[1]": {"target": "T2, aprataxin-(33-232), catalytic domain (HIT + Zn finger) (Schizosaccharomyces pombe, UniProt O74859 33-232)", "T2 sequence": "T1 sequence (O74859 33-232)", "test": "X-ray crystallography (2.25 A, P321); Zn2+, guanosine in active site; complementary 3'-PO4 strand … was in the mix but not in the crystal; Crystallization: aprataxin-(33-232) with 5 mM guanosine and 1.2 mM of each 10-mer, mixed with 15% PEG-3350, 0.15 M magnesium acetate; pH and temperature not given in the material", "settings": "protein: recombinant; chain copies: 2; two copies of the same strand; blunt 10-nt duplex, 8/10 mismatches, only terminal G:C pairs canonical"}}}
{"molecule": "Nc1nc2c(ncn2[C@@H]2O[C@H](COP(=O)(O)O)[C@@H](O)[C@H]2O)c(=O)[nH]1", "note": "[GMP]", "values": [{"measurement": "X-ray crystal structure, 1.5 Å", "setting": "Aprataxin-(33-232); anti conformation", "value": "The refined model included guanosine in the active site of the A protomer and GMP"}]}
{"molecule": "Nc1nc2c(ncn2[C@@H]2O[C@H](CO)[C@@H](O)[C@H]2O)c(=O)[nH]1", "note": "[guanosine]", "values": [{"measurement": "X-ray crystal structure, 1.5 Å", "setting": "Aprataxin-(33-232); anti conformation crystal, grown with 5 mM GMP (no guanosine added), guanosine modelled in active site of protomer A, anti conformatio", "value": "Difference density allowed placement of guanosine in the active site of the A protomer"}]}
{"molecule": "B1", "values": [{"measurement": "binding result", "setting": "[1]", "value": "binds"}]}
